Measurements reported in US6200963A, “Aryl sulfonic acids as FSH antagonists” (American Home Products Corporation, priority 2000, dated 2001).
Structures can show the parent of a compound that is named as a salt. Where two headings read alike, the source gives them in different places.

Key:
FSH receptor [1] = biological target: T1, FSH receptor (Homo sapiens, UniProt P23945); assay: FSH Receptor Radioligand Membrane Binding Assay ([125I]hFSH, CHO cell membranes); design: expressed in transfected cells; membrane homogenate; settings: for inhibition at 10 µM: read-out: % Inhibition at 10 μM conc.; for inhibition at 100 µM: read-out: % Inhibition at 100 μM conc.
T1 sequence (P23945 18-695): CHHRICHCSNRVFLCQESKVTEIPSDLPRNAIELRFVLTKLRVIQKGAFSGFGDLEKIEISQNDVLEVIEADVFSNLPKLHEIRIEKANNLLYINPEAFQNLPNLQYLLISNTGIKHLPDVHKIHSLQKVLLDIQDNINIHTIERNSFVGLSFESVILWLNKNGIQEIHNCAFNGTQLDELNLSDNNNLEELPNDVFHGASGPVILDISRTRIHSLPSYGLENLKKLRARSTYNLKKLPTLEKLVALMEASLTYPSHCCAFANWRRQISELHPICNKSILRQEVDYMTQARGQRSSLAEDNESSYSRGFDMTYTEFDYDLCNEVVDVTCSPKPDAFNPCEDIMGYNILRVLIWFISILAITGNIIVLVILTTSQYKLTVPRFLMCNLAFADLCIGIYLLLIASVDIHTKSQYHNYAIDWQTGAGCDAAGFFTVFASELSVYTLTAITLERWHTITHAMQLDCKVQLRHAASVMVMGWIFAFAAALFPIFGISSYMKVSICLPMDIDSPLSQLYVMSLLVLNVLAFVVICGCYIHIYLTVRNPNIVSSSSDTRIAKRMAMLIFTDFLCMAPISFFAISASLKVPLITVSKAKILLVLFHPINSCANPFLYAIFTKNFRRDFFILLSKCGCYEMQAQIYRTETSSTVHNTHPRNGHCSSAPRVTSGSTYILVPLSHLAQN
Method: FSH Receptor Radioligand Membrane Binding Assay
Membrane Source: Chinese hamster ovarian cells stably transfected with the human FSH receptor were cultured (Ultra CHO medium containing 1% fetal bovine serum and 200 μg/mL G418) in and harvested. Cells were collected by centrifugation and resulting cell pellets were frozen and stored at -70° C.
Membrane Receptor Preparation: Frozen cell pellets were weighed and resuspended in binding buffer to a final concentration of 30 mg wet weight/mL. Cell suspension for each pellet was homogenized using a Tempest homogenizer (setting=1; 5 strokes; VirTis, Gardiner, N.Y.). Cell homogenates were pooled and 35 mL aliquots were transferred to 50-mL polypropylene copolymer centrifuge tubes (Nalgene cat. #3110-0500). Tubes were spun at 12,000 rpm (SS34 rotor) for 12 min at 4° C. Resulting supernatant fractions were discarded and pellets were stored at -70° C. until use. On the day of the assay, 35 mL binding buffer was added to each tube (35 mL membrane suspension was sufficient for three 96-well plates). The membrane pellet was dispersed by trituration using a pipet. The resulting suspension was homogenized using a Tempest homogenizer (3 strokes at setting=1).
Receptor Binding Assay: Membrane homogenate (100 μl) was added to each well of a 96-well microtiter plate (Falcon # 3077). All reactions were tested in triplicate. Test compound solutions (50 μl) were added to the designated wells. Total bound counts were determined by adding 50 μl binding buffer containing 4% DMSO to the designated wells. […] Plates were pre-incubated for 15 min at room temperature on shaking platform (setting=3). After preincubation [^125 I]FSH (50 μl) was added to each well and plates were incubated for 2 h at room temperature on shaking platform (setting=3). The reaction was terminated by transfer of the membrane preparation to glass fiber filters (Blue Mat #11740; 102×256 mm; Skatron Instruments, Sterling, Va.) that had been pretreated with 1% BSA in wash buffer for at least 30 min, but not longer than 1 h using a 96-well microtiter vacuum harvester (Skatron Instruments). The membrane preparation was washed with 5 cycles of ice-cold wash buffer (200 μl/well/cycle) followed by a pulse wash of 3 cycles (100 μl/well/cycle). The total wash volume per well was 1.3 mL. The filters were dried by a 10 sec aspiration. Disks corresponding to each well of the microtiter plate were punched out of the filter mat into 12×75 mm polypropylene tubes. The radioactivity present on each of the disks was measured using a gamma counter.
An FSH dose response curve (0.001, 0.01, 0.1, 1, 10, and 100 nM) was generated for each binding assay to monitor assay to assay variability.
FSH Receptor Radioligand Membrane Binding Assay Buffers and Reagents
Binding Buffer (pH 7.2): 10 mM Trizma®-HCl (Sigma)
Binding buffer was prepared in 1 l volumes containing Trizma-HCl, MgCl2, CaCl2 and sodium azide, the pH was adjusted to 7.2 with NaOH, and stored at 4° C. until use. BSA was weighed out on the day of the assay and added to the amount of buffer required for the assay (usually 150 mL). The protease inhibitors were prepared as 1 mg/mL stocks (aprotinin, leupeptin, and phosphoramidon were prepared in binding buffer without BSA and protease inhibitors; pepstatin and PMSF were prepared in methanol), stored in 1 mL aliquots at -70° C., and added to the binding buffer on the day of the assay.
Wash Buffer (pH 7.2): 50 mM Trizma®-HCl (Sigma)
Wash buffer was prepared containing Trizma-HCl, MgCl2 and EDTA, the pH was adjusted to 7.2 with NaOH, and stored at 4° C.
Filter Soak Buffer (pH 7.2): Wash Buffer
BSA was weighed out on the day of the assay and added to 300 mL of wash buffer. The filter soak buffer was used for two assays before being discarded.
A portion of the stock solution was diluted in binding buffer to a concentration of 200 pM. […]

FSH receptor [2] = biological target: T1, FSH receptor; assay: In Vitro Bio-assay of Agonists and Antagonists to the FSH Receptor (cAMP accumulation in CHO-3D2 cells); assay type: cell-based; design: expressed in transfected cells; host or cells: CHO-3D2 cells
Method: Preparation of CHO-3D2 Cells; CHO-3D2 cells were plated into 96-well Nunc tissue culture plates at a density of 30,000 cells/well in DMEM/F12 medium (Gibco/BRL, Grand Island, N.Y.) supplemented with 5% Fetal Bovine Serum (Hyclone, Fetal Clone II), 2 mM L-glutamine and penicillin/streptomycin (100 U/mL).
The plate was split in half to test a single compound in both agonist and antagonist mode on the same plate.
For agonist mode, compounds were tested using 5 different concentrations in a dose-response paradigm using one column as a control (challenge medium alone) in agonist mode.
The 96-well format allowed for the capability to test 4 columns of compound, using one of the remaining columns for negative control (challenge medium alone) and the other remaining column for ampositive control (ED20 of FSH alone).
The doses chosen to test each compound were extrapolated from the initial screening process (receptor binding data).
Data were analyzed statistically by analysis of variance and significant differences between treatments and control determined by Dunnett's test. In antagonist mode, a Duncan's test was used.
Reference Compounds: Test compounds were compared to the effect of purified or recombinant human FSH.

FSH receptor [3] = biological target: T2, FSH receptor (Rattus norvegicus, UniProt P20395); assay: In Vitro Bioassay of Agonists and Antagonists to the FSH Receptor using Primary Cultures of Rat Granulosa (estradiol secretion); assay type: cell-based; design: immature female Sprague-Dawley rats (Charles River Laboratories, Wilmington, Mass.) were used as donors for ovarian granulosa cells; endogenous in cells; host or cells: primary ovarian granulosa cells of immature female Sprague-Dawley rats; settings: antagonist mode; ED50 of FSH (0.5 ng/mL), rat granulosa cells, 72 h; read-out: IC50 (half-maximal inhibition of FSH-induced estradiol secretion)
T2 sequence (P20395 18-692): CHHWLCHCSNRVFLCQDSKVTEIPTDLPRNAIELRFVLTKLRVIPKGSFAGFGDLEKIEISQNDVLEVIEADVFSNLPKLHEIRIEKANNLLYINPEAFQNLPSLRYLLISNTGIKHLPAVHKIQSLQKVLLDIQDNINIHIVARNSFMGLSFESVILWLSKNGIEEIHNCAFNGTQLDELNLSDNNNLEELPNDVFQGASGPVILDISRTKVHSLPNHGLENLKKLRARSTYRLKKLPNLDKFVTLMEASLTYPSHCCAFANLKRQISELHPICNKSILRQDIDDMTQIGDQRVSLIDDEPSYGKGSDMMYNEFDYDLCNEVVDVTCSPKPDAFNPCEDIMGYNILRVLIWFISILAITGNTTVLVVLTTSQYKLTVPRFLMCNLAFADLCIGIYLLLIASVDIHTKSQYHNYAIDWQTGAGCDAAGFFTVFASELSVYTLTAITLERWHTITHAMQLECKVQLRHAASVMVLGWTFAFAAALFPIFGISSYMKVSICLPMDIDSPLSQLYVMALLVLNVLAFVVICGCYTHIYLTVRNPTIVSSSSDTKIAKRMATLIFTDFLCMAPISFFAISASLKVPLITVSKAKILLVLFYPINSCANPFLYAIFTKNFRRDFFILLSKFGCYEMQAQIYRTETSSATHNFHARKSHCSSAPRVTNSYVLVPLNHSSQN
Method: The concentration of vehicle was maintained constant throughout all dilutions.
Preparation of Granulosa Cells: Twenty-four day-old immature female Sprague-Dawley rats (Charles River Laboratories, Wilmington, Mass.) were used as donors for ovarian granulosa cells. The animals were treated by single daily injections of 100 mg/kg diethylstilbestrol (DES) in oil over three days. On the fourth day, animals were sacrificed by CO2 asphyxiation and the ovaries were removed. Ovaries were washed three times in 50 mL of sterile HEPES-buffered saline (HBS, pH 7.4). […] After the final spin, the cells were resuspended by gentle trituration in 25 mL serum-free medium, an aliquot counted in a hemocytometer and viability estimated by trypan blue exclusion. […]
Analysis of Results: Estradiol was expressed as pg/mL. […] Data were analyzed statistically by analysis of variance with Huber weighting of log transformed data. […]

FSH receptor [4] = biological target: T2, FSH receptor; settings: literature, in words; cited from earlier work
testosterone production [5] = settings: rats administered suramin; in words; cited from earlier work
testosterone production [6] = settings: humans administered suramin; in words; cited from earlier work
[7] = 10 μM, [125I]hFSH binding, CHO membranes with human FSH receptor
[8] = 100 μM, [125I]hFSH binding, CHO membranes with human FSH receptor
[9] = antagonist mode, hFSH-induced cAMP accumulation (ED20 of FSH, […]), CHO-3D2 cells, 30 min

COc1ccc(N=Nc2c(S(=O)(=O)O)cc3cc(NC(=O)c4ccccc4)ccc3c2O)cc1 [Example 16, 7-Benzoylamino-4-hydroxy-3-(4-methoxy-phenylazo)-napthalene-2-sulfonic Acid]
IC50 (FSH receptor [1]): 79 µM | inhibition at 10 µM (FSH receptor [1]; [7]): 11% | inhibition at 100 µM (FSH receptor [1]; [8]): 76%

COc1ccc(N=Nc2c(S(=O)(=O)O)cc3cc(NC(=O)c4ccc(OC)c(OC)c4)ccc3c2O)cc1 [Example 19, 7-(3,4-Dimethoxy-benzoylamino)-4-hydroxy-3-(4-methoxy-phenylazo)-napthalene-2-sulfonic Acid]
IC50 (FSH receptor [1]): 14 µM | inhibition at 10 µM (FSH receptor [1]; [7]): 19% | inhibition at 100 µM (FSH receptor [1]; [8]): 100% | IC50 (FSH receptor [2]): 16 µM

COc1ccc(N=Nc2c(S(=O)(=O)O)cc3cc(NC(=O)c4c(OC)cccc4OC)ccc3c2O)cc1 [Example 18, 7-(2,6-Dimethoxy-benzoylamino)-4-hydroxy-3-(4-methoxy-phenylazo)-napthalene-2-sulfonic Acid]
inhibition at 10 µM (FSH receptor [1]; [7]): 10% | inhibition at 100 µM (FSH receptor [1]; [8]): 8%

COc1ccc(N=Nc2c(S(=O)(=O)O)cc3cc(NC(=O)c4cc(OC)cc(OC)c4)ccc3c2O)cc1 [Example 14, 7-(3,5-Dimethoxy-benzoylamino)-4-hydroxy-3-(4-methoxy-phenylazo)-napthalene-2-sulfonic Acid]
IC50 (FSH receptor [1]): 81 µM | inhibition at 10 µM (FSH receptor [1]; [7]): 14% | inhibition at 100 µM (FSH receptor [1]; [8]): 60%

COc1ccc(N=Nc2c(S(=O)(=O)O)cc3cc(Nc4nc(Cl)nc(N(CCC(N)=O)CCC(N)=O)n4)ccc3c2O)cc1 [Example 9, 7-{4-[Bis-(2-carbamoyl-ethyl)-amino]-6-chloro-[1,3,5]-triazin-2-ylamino)-4-hydroxy-3-(4-methoxy-phenylazo)-napthalene-2-sulfonic Acid, Sodium Salt]
% Inhibition at 10 μM conc. (FSH receptor [1]; 10 μM, [125I]hFSH binding, CHO membranes with human FSH receptor, Sodium Salt): 66% | inhibition at 10 µM (FSH receptor [1]; [7]): 74% | % Inhibition at 100 μM conc. (FSH receptor [1]; 100 μM, [125I]hFSH binding, CHO membranes with human FSH receptor, Sodium Salt): 98% | inhibition at 100 µM (FSH receptor [1]; [8]): 94% | IC50 (FSH receptor [1]; [125I]hFSH binding, CHO membranes with human FSH receptor, Sodium Salt): 5 µM | IC50 (FSH receptor [1]; [125I]hFSH binding, CHO membranes with human FSH receptor, listed as 3, Sodium Salt): 6 µM | IC50 (FSH receptor [2]; [9]): 1.4 µM | IC50 (FSH receptor [3]): 1.9 µM

COc1ccc(N=Nc2c(S(=O)(=O)O)cc3cc(NC(=O)c4ccc(N(C)C)cc4)ccc3c2O)cc1 [Example 12, 7-(4-Dimethylamino-benzoylamino)-4-hydroxy-3-(4-methoxy-phenylazo)-napthalene-2-sulfonic Acid, Sodium Salt]
IC50 (FSH receptor [1]): 101 µM

COc1ccc(N=Nc2c(S(=O)(=O)O)cc3cc(Nc4nc(Cl)nc(N(CCO)CCO)n4)ccc3c2O)cc1 [Example 11, 7-{4-[Bis-(2-hydroxy-ethyl)-amino]-6-chloro-[1,3,5]-triazin-2-ylamino)-4-hydroxy-3-(4-methoxy-phenylazo)-napthalene-2-sulfonic Acid, Sodium Salt]
inhibition at 10 µM (FSH receptor [1]; [7]): 29% | inhibition at 100 µM (FSH receptor [1]; [8]): 71% | IC50 (FSH receptor [1]; [125I]hFSH binding, CHO membranes with human FSH receptor): 8.6 µM | IC50 (FSH receptor [2]; [9]): 10 µM

Cc1ccc(C(=O)Nc2ccc(S(=O)(=O)O)c3cc(S(=O)(=O)O)cc(S(=O)(=O)O)c23)cc1NC(=O)c1cccc(NC(=O)Nc2cccc(C(=O)Nc3cc(C(=O)Nc4ccc(S(=O)(=O)O)c5cc(S(=O)(=O)O)cc(S(=O)(=O)O)c45)ccc3C)c2)c1 [suramin]
inhibition of FSH binding to its receptor (FSH receptor [4]): inhibit FSH binding to its receptor | testosterone production (testosterone production [5]): decrease in testosterone production | testosterone production (testosterone production [6]): decrease in testosterone production
